# Patent publication US6998407B2, “Antagonists of MCP-1 function and methods of use thereof” (Telik, Inc., priority 2001, dated 2006)
# Legend:
# [1] = test system: ICR male mice; assay: Thioglycollate-induced inflammation model; assay type: in vivo; details: peritoneal cavity, 96 h after thioglycollate; 10 mg/kg subcutaneous at 0 h, 3 h and 16 h
# Procedure: 3% Brewer's thioglycollate broth (Difco, Detroit, Mich.) was injected into the peritoneal cavity of ICR male mice, followed by subcutaneous administration of the same dose of test compound after 0 h, 3 h and 16 hours post-thioglycollate injection, respectively. After 96 h, the number of total elicited cells and MOMA2-positive cells in the peritoneal cavity was analyzed using a flowcytometer (EPICS XL, Beckman Coulter).
# [2] = test system: male Wistar rats; assay: Anti-Thy-1 antibody induced nephritis model; assay type: in vivo; details: 1 mg/kg subcutaneous, 2 h before, immediately after, 5 h after anti-Thy-1 antibody, then twice a day for 2 days
# Procedure: The efficacy of the compounds of the present invention was also evaluated in an animal model of nephritis. This model simulates very closely the conditions found in human mesangial proliferative glomerulonephritis.
# Anti-Thy-1 nephritis was induced by intravenous injection of anti-Thy-1-antibody to male Wistar rats. The test compound was subcutaneously administered 2 h before, immediately after, and 5 h after the anti-Thy-1 antibody treatment, and then twice a day for the following 2 days. Anti-MCP-1 antibody was intraperitoneally injected once a day for 3 days. Seven days after the anti-Thy-1 antibody treatment, the rats were sacrificed. The kidneys were perfused with 10% formaldehyde in PBS, surgically removed, and immersed in 10% formaldehyde. The kidneys were then embedded in paraffin for glomerular histopathology or in OCT compound Miles Inc., Elkhart, Ind.) in liquid nitrogen after immersion in 30% sucrose overnight. Immunohistochemical staining was performed with a mouse anti-rat ED-1 monoclonal antibody. Briefly, […] renal sections were prepared and endogenous peroxidase blocked with 0.3% hydrogen peroxide. The sections were then blocked with Protein Block (DAKO, Japan) and stained with anti-ED-1 antibody for 45 min. […] The amount of urinary protein was determined with the DC protein assay kit (Bio-Rad, Hercules, Calif.). […]
Structure (SMILES),MOMA2-positive Cells [1],Total Cells [1],Urinary Protein [2] [mg/day]
"O=C(NC(=O)c1ccc2c(c1)OCO2)Nc1cccc(C(F)(F)F)c1 [Compound 16, 2H-Benzo[3,4-d]1,3-dioxolen-5-yl-N-({[3-(trifluoromethyl)phenyl]amino}carbonyl)carboxamide]",7.5 ± 1.6 × 10^6,8.8 ± 1.5 × 10^6,
"O=C(NC(=O)c1ccc2ncoc2c1)Nc1ccc(Cl)c(Cl)c1 [Compound 80, Benzoxazol-6-yl-N-{[(3,4-dichlorophenyl)amino]carbonyl}carboxamide]",,,162.1 ± 42.6
"O=C(NC(=O)c1ccc2ncoc2c1)Nc1ccc(C(F)(F)F)cc1 [Compound 82, Benzoxazol-6-yl-N-({[4-(trifluoromethyl)phenyl]amino}carbonyl)carboxamide]",3.2 ± 0.4 × 10^6,4.2 ± 0.4 × 10^6,
